# Laboratory results: patent US5457106A, “Pyridine derivatives, their production and use” (Takeda Chemical Industries, Ltd., priority 1991, dated 1995)
# Structures can show the parent of a compound that is named as a salt.
# Assays:
# cyclooxygenase = target: T1, cyclooxygenase (Rattus norvegicus, UniProt Q63921); experiment: Cyclooxygenase inhibitory activity (HHT formation from arachidonic acid in rat platelet-rich plasma); assay type: cell-based, rat (Jcl:wistar)
# T1 construct: from tissue; host or cells: platelets in platelet-rich plasma from rat abdominal aorta blood (Jcl:wistar, male)
# T1 sequence (Q63921 27-602): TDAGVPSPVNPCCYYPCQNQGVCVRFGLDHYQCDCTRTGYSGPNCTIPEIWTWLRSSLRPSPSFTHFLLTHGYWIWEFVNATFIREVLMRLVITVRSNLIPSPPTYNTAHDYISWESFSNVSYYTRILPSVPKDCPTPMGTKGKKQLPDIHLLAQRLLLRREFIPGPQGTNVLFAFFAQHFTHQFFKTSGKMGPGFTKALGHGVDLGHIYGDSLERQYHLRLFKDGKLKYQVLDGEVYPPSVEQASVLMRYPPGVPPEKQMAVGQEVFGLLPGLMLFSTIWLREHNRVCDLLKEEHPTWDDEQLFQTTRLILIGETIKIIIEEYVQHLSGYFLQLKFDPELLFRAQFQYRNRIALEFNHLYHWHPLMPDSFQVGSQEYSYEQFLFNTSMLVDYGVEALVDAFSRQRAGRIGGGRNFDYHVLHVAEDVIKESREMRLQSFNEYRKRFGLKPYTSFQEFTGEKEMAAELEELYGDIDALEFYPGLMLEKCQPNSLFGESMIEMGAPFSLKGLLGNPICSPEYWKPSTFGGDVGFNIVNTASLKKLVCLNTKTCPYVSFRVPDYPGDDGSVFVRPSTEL
# [1] = test system: Mouse phenylquinone writhing; experiment: Mouse phenylquinone writhing inhibitory activity; assay type: in vivo, mouse (Slc: ICR); settings: 50 mg/kg, orally; for inhibition in vivo at 50 mg/kg: Mus musculus, po, 20 min, read-out: Inhibitory percentage (phenylquinone writhing)
# Experimental: Mouse Phenylquinone Writhing Inhibitory Activity A Slc: ICR male mouse (4 weeks, weight 17 to 24 g) was used. A test compound suspended in 5% gum arabic solution was administered orally. After 30 minutes, 0.1 ml/10 g body weight of 0.02% phenylquinone solution in water (dissolved by the aid of 5% ethanol) was injected intraperitoneally, and writhing and stretching responses of individual animals were measured for 20 minutes [Siegmund, E., Cadmus, R. and Lu, G.; Proc. Soc. exp. Biol. Med. 95, (1957)].
# [2] = test system: brewer's yeast induced pyrexia; experiment: Antipyretic activity (brewer's yeast induced pyrexia); assay type: in vivo, rat (DS line); settings: 50 mg/kg, orally; for Antipyretic activity, .increment. °C.: at peak time
# Experimental: Antipyretic Activity Six male DS line rats, 7 weeks old, weighing 200 to 240 g (Nihon Clea) per one group were used. According to the method of Winder et al. (J. Pharmac. Exp. Ther. 138: 405 (1963)), a suspension of 15% brewer's yeast (Sigma) in physiological saline (1 ml/100 g, b.w.) was injected subcutaneously at 16 hours before measurement of the body temperature to induce pyrexia. After injection of yeast, only water was provided, and each rat was bred separately in a five duplicate cage. At 16, 17 and 18 hours after yeast injection, the rectal temperature was measured by a thermistor thermometer (Takara Kogyo K.K.), and this was taken as the basal body temperature. […] Animals having the body temperature of not lower than 38.5° C. at 18 hours after yeast injection were selected, and a test compound was administered orally (1 ml/100 g, b.w.). As a control, only the solvent was provided. Upon administration, the body temperature of the control group and that of the test compound-administered group were adjusted to the same temperature. The rectal temperature was measured every hour till five hours after administration.
# [3] = test system: ART (antigen-responding T-cell); experiment: In vitro ART (antigen-responding T-cell) proliferation test; assay type: cell-based, Lewis rat; settings: for inhibition at 1 µM / inhibition at 10 µM: Rattus norvegicus, T-cell, read-out: % Inhibition of ART growth
IC50 (cyclooxygenase) [µM],Structure (SMILES),inhibition in vivo at 50 mg/kg [1] [%],"Antipyretic activity, peak time [2] [h]","Antipyretic activity, .increment. °C. [2] [°C]",further results
5.2,"O=C(N(CCCSc1ccncc1)Cc1ccccn1)C(F)(F)F [Example 78, 4-[3-(N-2-pyridylmethyl-N-trifluoroacetylamino)propylthio] pyridine dihydrochloride]",55,,,
4.5,"O=C1c2ccccc2C(=O)N1CCCCOc1ccncc1 [Example 84, 4-(4-phthalimidobutyloxy)pyridine]",84,3,-0.97,
6.3,"Cl.O=C(c1ccccc1)N(CCCSc1ccncc1)Cc1cccs1 [Example 93, 4-[3-(N-(2-thienylmethyl)benzoylamino)propylthio]pyridine hydrochloride]",,,,inhibition at 1 µM ([3]; 1 μM): 42%; inhibition at 10 µM ([3]; 10 μM): 11%; Inhibitory percentage (phenylquinone writhing) [1]: 41%
1.4,"O=C(NCCCOc1ccncc1)c1cc2ccccc2s1 [Example 85, 4-[3-(thianaphtene-2-carbonylamino)propyloxy]pyridine]",70,2,-1.00,
1.2,CCCCCCCCCC(=O)NCCCOc1ccncc1 [Example 88],41,,,
6.8,"O=C(c1ccccc1)N(CCCSc1ccncc1)Cc1ccccn1 [Example 81, 4-[3-(N-2-pyridylmethyl-N-benzoylamino)propylthio]pyridine]",,,,Inhibitory percentage (phenylquinone writhing) [1]: 75%
13,"CC(=O)N(CCCSc1ccncc1)Cc1ccccc1.Cl [Example 76, 4-[3-(N-benzyl-N-acetylamino)propylthio]pyridine hydrochloride]",,,,% Inhibition of ART growth ([3]; 1 μM): 3%; % Inhibition of ART growth ([3]; 10 μM): 38%; Inhibitory percentage (phenylquinone writhing) [1]: 61%

# The next lines start with the compound.
Structure (SMILES),IC50 (cyclooxygenase) [µM],inhibition in vivo at 50 mg/kg [1] [%],"Antipyretic activity, peak time [2] [h]","Antipyretic activity, .increment. °C. [2] [°C]",further results
"Cc1ccsc1C(=O)NCCCSc1ccncc1 [Example 60, 4-[3-(3-methylthenoylamino)propylthio]pyridine]",4.2,41,,,
"O=C(NCCCSc1ccncc1)c1ccccc1 [Example 40, 4-[3-(benzoylamino)propylthio]pyridine]",7.6,45,3,-2.00,
"CN(CCCSc1ccncc1)C(=O)c1cccs1 [Example 51, 4-[3-(N-methyl-2-thenoylamino)propylthio]pyridine]",8.9,72,,,
"O=C(NCCCOc1ccncc1)c1cccs1 [Example 89, 4-[3-(2-thenoylamino)propyloxy]pyridine]",,62,3,-2.72,
"CC(C)(C)C(=O)Nc1ncccc1CCN1C(=O)c2ccccc2C1=O.Cl [Example 71, 3-[2-(phthalimido)ethyl]-2-(pivaloylamino)pyridine hydrochloride]",,55,2,-0.52,
"CC(=O)N(CCCSc1ccncc1)Cc1cccs1.Cl [Example 91, 4-[3-(N-(2-thienylmethyl)-N-acetylamino)-propylthio]pyridine hydrochloride]",,,,,% Inhibition of ART growth ([3]; 1 μM): 44%; % Inhibition of ART growth ([3]; 10 μM): 42%; Inhibitory percentage (phenylquinone writhing) [1]: 52%
"O=C1c2ccccc2C(=O)N1CSc1ccccn1 [Example 64, 2-(phthalimidomethylthio)pyridine]",,56,3,-2.58,
"CC(=O)N(CCCSc1ccncc1)Cc1ccccc1 [Example 75, 4-[3-(N-benzyl-N-acetylamino)propylthio]pyridine]",,54,,,inhibition at 1 µM ([3]; 1 μM): 5%; inhibition at 10 µM ([3]; 10 μM): 45%
"O=C(NCCCSc1ccncc1)c1ccc(-c2ccccc2)cc1 [Example 26, 4-[3-(4-phenylbenzoylamino)propylthio]pyridine hydrochloride]",3.5,67,,,
